From USRE40300E1, “Carbon dioxide enhancement of inhalation therapy” (priority 1999, dated 2008)
Read-outs that look alike come from different tables or passages of the source.

Columns and labels:
[1] = Tissue distribution and pharmacokinetics of CPT after CPT-DLPC aerosol generated with normal or 5% CO2-enriched air; conditions: 5% CO2-in-air versus normal air
Procedure: Briefly, an AERO-MIST jet nebulizer (CIS-USA, Bedford, Mass.) is used to generate aerosol particles at the air flow rate of 10 L/min. Mice are placed in sealed plastic cage (23×18×13 cm) and exposed to aerosol for 30 min. The aerosol is generated with normal or 5% CO2-enriched air obtained by mixing normal air and CO2 with a blender (Bird 3m, Palm Springs, Calif.) and the CO2 concentrations are calibrated with a Fluid Fyrite (Bacharach Inc., Pittsburgh, Pa.). At each time point 3 mice are removed from the cage and sacrificed by exposure to Isoflurane, USP (Abbott Laboratories, Chicago, Ill.) and exsanguination. Organs are resected, weighed and kept frozen at −70° C. until extraction.
Briefly, after thawing tissue, 20 μg of 9NC in 20 μl is added in organs as an internal standard to determine the extraction efficiency. The samples are cut in small pieces and 1 ml of 0.1% aqueous acetic acid solution, pH 3.2 is added to each sample. After the homogenization in a mini-beadbeater, the homogenates are centrifuged at 1,000×g for 5 min. The supernatant fractions are re-extracted with 8 ml of methylene chloride. The organic fraction is separated and dried under air at room temperature. […]
Chromatograms for camptothecin are monitored on Waters 470 scanning fluorescent detector (λex=360 nm, λem=455 nm) while 9NC is detected using Waters 440 UV absorbance detector monitoring at 254 nm. […]

B16-F10 lung metastasis = assay: Inhibition of B16-F10 lung metastasis by aerosol delivery; assay type: in vivo, C57BL/6 mice; conditions: 5% CO2 alone, data not shown
Procedure: B16-F10 melanoma cell line was obtained from Division of Cancer treatment and Diagnosis Center (DCTDC, NCE, Frederick, Md.) and cultivated in DMEM supplemented with 10% fetal calf serum. […] Twenty-five thousand B16-F10 cells in 200 μl of media are injected per mice via the tail vein of C57BL/6 mice. Lung metastases are visually detected within 2 weeks after inoculation of cells. The cells were used at passages 3-12.
C57BL/6 mice were injected intravenously with 25,000 B16-F10 cells on day 0. The mice were treated with polyethylenimine-p53 aerosol complexes generated using 5% CO2 twice a week starting the day after inoculation of the cancer cells into the mice (on days 1, 4, 8, 11, 15, 18, and 22) with the last treatment on day 22 postinjection (a total of seven aerosol exposures). Control groups included untreated mice, mice treated with polyethyleneimine or with polyethylenimine-Luc aerosol complexes. The control animals start dying around day 24 post tumor cell inoculation, which is when the therapy was stopped and the experiment terminated. The dosage of treatment was 2 mg plasmid/10 ml of aerosolized solution at a polyethyleneimine:DNA (N:P) ratio of 10:1. This is the total amount of DNA aerosolized to the mice. […]

[2] = cited from earlier work
[3] = cited from earlier work; for increase in frequency of breathing / increase in minute volumes / increase in tidal volumes: normal humans
[4] = Tissue distribution and pharmacokinetics of PTX after PTX-DLPC aerosol generated with normal or 5% CO2-enriched air; assay type: in vivo, mice; conditions: for Cmax: lung, inhaled, 10 mg of PTX/ml suspension (nebulized, 30 min aerosol exposure), 30 min, read-out: Pulmonary paclitaxel Cmax
[5] = inhalation of 5% carbon dioxide
[6] = 5% carbon dioxide for two minutes
[7] = 7.5% carbon dioxide for two minutes

For `CC[C@@]1(O)C(=O)OCc2c1cc1n(c2=O)Cc2cc3ccccc3nc2-1` [camptothecin], the “average pulmonary deposition increase” value [1] was 2-4 fold.

For `O=C=O` [carbon dioxide], the “effect on the growth of tumors compared to untreated mice” value (B16-F10 lung metastasis) is given as “no effect”, the “increase in tidal volume” value ([2]; 5% CO2-enriched air, mammalians, plethysmograph studies) is given as 170-180% and the “increase in tidal volume” value [2, 5] is given as ≤ 192%. The “increase in frequency of breathing” value [3, 6] was 6.7%, the “increase in minute volumes” value [3, 6] was 34% and the “increase in tidal volumes” value [3, 6] was 31%. For the same compound, the “increase in frequency of breathing” value [3, 7] was 19%, the “increase in minute volumes” value [3, 7] was 75% and the “increase in tidal volumes” value [3, 7] was 52%. For the same compound, the “increase in the minute volume” value [3, 5] was 3 fold.

With `CC(=O)O[C@H]1C(=O)[C@@]2(C)[C@H]([C@H](OC(=O)c3ccccc3)[C@]3(O)C[C@H](OC(=O)[C@H](O)[C@@H](NC(=O)c4ccccc4)c4ccccc4)C(C)=C1C3(C)C)[C@]1(OC(C)=O)CO[C@@H]1C[C@@H]2O` [paclitaxel] the “area under the lung-concentration-time curve” value ([4]; 5% CO2) was 33.7 µg·h/g, the “T1/2α in the lungs” value ([4]; 5% CO2-air) was 0.7 h and the “T1/2β in the lungs” value ([4]; 5% CO2-air) was 5.1 h. The “AUC over a 3 hr period, fifth value of list (blood)” value ([4]; 5% CO2-air, trapezoidal rule) was 0.13±0.10 μg PTS-hr/g of tissue, the “AUC over a 3 hr period, fourth value of list (kidney)” value ([4]; 5% CO2-air, trapezoidal rule) was 2.8±1.5 μg PTS-hr/g of tissue and the “AUC over a 3 hr period, liver” value ([4]; 5% CO2-air, trapezoidal rule) was 9.8±1.9 μg PTS-hr/g of tissue. For the same compound, the “AUC over a 3 hr period, lungs” value ([4]; 5% CO2-air, trapezoidal rule) was 34±2 μg PTS-hr/g of tissue, the “AUC over a 3 hr period, sixth value of list (brain)” value ([4]; 5% CO2-air, trapezoidal rule) was 0.23±0.2 μg PTS-hr/g of tissue and the “average pulmonary deposition increase” value ([4]; 5% CO2-in-air versus normal air) was 2-4 fold. The “Cmax ratio 5% CO2-enriched air versus ambient air” value ([4]; lungs) was 4.2 fold, the “lung AUC ratio 5% CO2 versus normal air” value ([4]; mouse, in vivo) was 5.7 fold and the Cmax ([4]; mouse, 5% CO2-enriched air) was 23100 ± 4300 ng/g. For the same compound, the Cmax ([4]; mouse, ambient air) was 5500 ± 200 ng/g, the “T1/2α in the lungs” value ([4]; normal air) was 0.3 h and the “T1/2β in the lungs” value ([4]; normal air) was 1.6 h. For the same compound, the “area under the lung-concentration-time curve” value ([4]; normal air) was 5.9 µg·h/g and the “levels of paclitaxel in liver, spleen, kidney and blood” value ([4]; normal air for aerosolization) was “below detectable levels”.
